We go through five compounds from patent publication US12053475B2, “TRPC ion channel inhibitors for use in therapy” (UNIVERSITY OF LEEDS, priority 2017, dated 2024).

Assay [1] addresses T1, TRPC5 (Homo sapiens, UniProt Q9UL62).
T1 sequence (Q9UL62 1-973): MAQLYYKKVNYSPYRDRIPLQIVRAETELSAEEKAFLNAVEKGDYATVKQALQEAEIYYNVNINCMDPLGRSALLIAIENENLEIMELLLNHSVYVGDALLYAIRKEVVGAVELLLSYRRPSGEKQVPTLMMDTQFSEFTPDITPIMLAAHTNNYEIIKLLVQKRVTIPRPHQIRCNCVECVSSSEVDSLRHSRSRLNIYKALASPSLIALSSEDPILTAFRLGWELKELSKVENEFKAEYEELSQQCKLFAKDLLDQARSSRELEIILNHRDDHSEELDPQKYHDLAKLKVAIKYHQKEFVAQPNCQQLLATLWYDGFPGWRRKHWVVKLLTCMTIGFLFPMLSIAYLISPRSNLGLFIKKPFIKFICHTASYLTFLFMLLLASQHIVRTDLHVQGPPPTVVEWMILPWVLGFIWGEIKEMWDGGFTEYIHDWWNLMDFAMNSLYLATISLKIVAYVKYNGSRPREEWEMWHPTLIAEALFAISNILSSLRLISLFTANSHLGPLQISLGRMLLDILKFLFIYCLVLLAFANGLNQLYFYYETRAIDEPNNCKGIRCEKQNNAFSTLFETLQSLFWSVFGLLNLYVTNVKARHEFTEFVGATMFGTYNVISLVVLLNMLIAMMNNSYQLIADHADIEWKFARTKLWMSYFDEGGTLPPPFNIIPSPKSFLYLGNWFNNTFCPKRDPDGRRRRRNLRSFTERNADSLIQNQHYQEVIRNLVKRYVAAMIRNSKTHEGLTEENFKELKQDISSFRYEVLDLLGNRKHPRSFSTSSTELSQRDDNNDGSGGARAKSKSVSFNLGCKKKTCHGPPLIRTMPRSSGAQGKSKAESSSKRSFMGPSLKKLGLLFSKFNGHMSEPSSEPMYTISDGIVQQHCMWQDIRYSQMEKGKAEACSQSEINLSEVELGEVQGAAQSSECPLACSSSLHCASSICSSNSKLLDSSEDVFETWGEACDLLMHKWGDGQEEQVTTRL
Also on record: host or cells: HEK239 (so in the source). To be noted: Mol Pharmacol. 2014; cited from earlier work.

The subject of assay [2] is adipocytes from subcutaneous white adipose tissue of mice. Kind of assay: Respirometry (oxygen consumption) in adipocytes. The note with it: 10 μM DE2, 24 hr pre-incubation; vs DMSO; FIG. 13. It counts as cell-based. On the procedure: Protein preparation and immunoblotting Proteins were isolated from cells and tissues using radio-immunoprecipitation assay (RIPA) buffer containing (in mM) 150 NaCl, 20 Tris HCl, 1 EGTA, 1 EDTA, 1% NP-40, 0.1% sodium dodecyl sulfate (SDS) and 1% sodium deoxylate. Complete™ protease inhibitor (Roche Life Science) was added into RIPA fresh before use in accordance with the manufacturer's instructions. Immunoblotting was carried out under standard protocols with primary antibodies anti-UCP1 (1:500, ab23841; Abcam), Cytochrome C (1:4000, ab110325; Abcam), Akt (pan) (1:1000, 4691; Cell Signaling) and Phospho-Akt (Ser473) (1:500, 4060; Cell Signaling). […] The cells were inoculated into the OROBOROS Oxygraph-2k chambers and oxidative phosphorylation analyses were performed using the mitochondrial substrate-uncoupler-inhibitor-titration protocol consisting of: substrate activation using sodium pyruvate, inhibition of ATP synthase using oligomycin, uncoupling via sequential addition of FCCP to maximum oxygen flux, mitochondria complex I and III inhibition using Rotenone and Antimycin A. Traces were analyzed using DatLab 6 Software (OROBOROS), measuring for routine state respiration (routine), mitochondrial leak (leak), maximum uncoupling capacity of the electron transport system (ETS) and rotenone and antimycin A-inhibited residual oxygen consumption (ROX). […]

Another assay concerns UCP1 and Cytochrome C. Kind of assay: mRNA analysis of UCP1 and Cytochrome C expression in adipocytes (beiging markers). The assay is classed as cell-based, mice. To be noted: 10 μM DE2, 24 hr pre-incubation; vs DMSO; FIG. 14. On the procedure: Quantitative RT-PCR analysis RNA from cell and tissue samples was obtained using TRIzol reagent (Thermo Fisher Scientific). 1 μg RNA was reverse-transcribed using High-Capacity cDNA Reverse Transcription Kit (Applied Biosystems) and RT-PCR analysis was performed using SYBR Select Masters Mix (Thermo Fisher Scientific) and LightCycler® 480 (Roche Life Science). The primers used are tabulated in Supplementary Table 1^34. Relative fold-change in expression was calculated using the comparative cycle method (2^−ΔΔCt) Mouse Gapdh gene was used as the reference.
To determine the influence of DE2 and C31 on expression of markers of white-to-brown adipocyte phenotypic switching, transcript accumulation of UCP1 and Cytochrome C was measured by mRNA analysis in adipocytes from subcutaneous white adipose tissue (n=4-5) of C4WT, C5WT, C4KO, and C5KO mice. Cells were pre-incubated with (24 hr) and maintained in 10 μM DE2 or 100 nM C31 where indicated. The vehicle control was DMSO.

In assay [3] the target is T1, TRPC5. Briefly: Intracellular Ca2+ measurement, HEK 293 cells expressing inducible human TRPC5, activated by (−)-Englerin A. The assay is classed as cell-based. Further details: expressed in transfected cells. The note with it: 10 μM DE2, 30 min pre-incubation; EA 100 nM; FIG. 12. The protocol: (§1) Cell culture Mouse stromal vascular fraction (SVF) cells from subcutaneous adipose tissue were isolated by mincing of the tissue followed by enzymatic digestion with 0.3 mg·mL^−1 Collagenase type II (Sigma), 0.3 mg·mL^−1 Collagenase type IV (Sigma), 2 mg·mL^−1 BSA (Sigma), 0.08 mg·mL^−1 DNase I (Sigma) and 0.04 mg·mL^−1 Dispase (Thermo Fisher Scientific) in serum free RPMI 1640 media (Gibco) for 45 min at 37° C. in 95% O2 and 5% CO2 environment. Isolated cells were centrifuged and processed through a 100 μm cell strainer. Following centrifugation, the cell pellet was reconstituted in full RPMI 1640 media containing 15% fetal calf serum and 1% penicillin-streptomycin (Gibco). Media was changed on the following day to remove non-adherent cells. […]
(§2) Intracellular Ca^2+ measurement HEK 293 cells containing stable incorporation of inducible TRPC4 or TRPC5 expression were seeded into 96-well clear-bottomed poly-D-lysine-coated black plates (Corning Life Sciences) at 90% confluence 24 hr before the experiment. […] The Fura-2-AM fluorescence was recorded using a 96-well fluorescence plate reader FlexStation II (Molecular Devices) at excitation wavelengths of 340 nm and 380 nm, and the emitted light was collected at 510 nm. […]

The target of a further assay is T2, human TRPC4 (Homo sapiens, UniProt Q9UBN4).
T2 construct: expressed in transfected cells
T2 sequence (Q9UBN4 1-977): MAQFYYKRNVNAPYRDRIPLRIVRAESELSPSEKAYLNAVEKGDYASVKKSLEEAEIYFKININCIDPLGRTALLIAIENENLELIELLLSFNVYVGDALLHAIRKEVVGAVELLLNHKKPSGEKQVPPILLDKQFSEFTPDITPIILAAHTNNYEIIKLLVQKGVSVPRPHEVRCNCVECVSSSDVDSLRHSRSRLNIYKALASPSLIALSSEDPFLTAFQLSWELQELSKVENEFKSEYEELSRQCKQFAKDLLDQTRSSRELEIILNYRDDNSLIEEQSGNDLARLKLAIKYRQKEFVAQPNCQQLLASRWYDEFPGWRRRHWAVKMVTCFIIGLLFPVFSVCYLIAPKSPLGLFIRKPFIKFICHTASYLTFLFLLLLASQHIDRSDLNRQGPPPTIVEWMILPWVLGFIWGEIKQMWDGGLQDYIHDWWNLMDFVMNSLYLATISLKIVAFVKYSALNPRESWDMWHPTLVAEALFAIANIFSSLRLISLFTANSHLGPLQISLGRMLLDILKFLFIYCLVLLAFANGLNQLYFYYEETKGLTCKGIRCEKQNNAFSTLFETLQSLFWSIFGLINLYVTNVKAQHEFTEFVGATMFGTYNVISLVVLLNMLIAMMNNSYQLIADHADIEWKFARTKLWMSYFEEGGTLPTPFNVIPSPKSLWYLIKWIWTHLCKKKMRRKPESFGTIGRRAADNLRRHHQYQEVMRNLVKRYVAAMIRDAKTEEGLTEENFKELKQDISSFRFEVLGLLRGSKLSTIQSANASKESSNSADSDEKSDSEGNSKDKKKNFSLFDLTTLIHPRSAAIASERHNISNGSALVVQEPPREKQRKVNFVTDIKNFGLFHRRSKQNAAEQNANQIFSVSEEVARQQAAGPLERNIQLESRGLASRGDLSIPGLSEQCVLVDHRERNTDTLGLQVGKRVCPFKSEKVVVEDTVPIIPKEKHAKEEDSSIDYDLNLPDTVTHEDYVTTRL
Briefly: Intracellular Ca2+ measurement, HEK 293 cells expressing inducible human TRPC4, activated by (−)-Englerin A. It counts as cell-based. To be noted: 10 μM DE2, 30 min pre-incubation; EA 100 nM; FIG. 12. The protocol: as §1, §2

Assay [4] deals with T1, TRPC5. Further details: host or cells: HEK239 (so in the source). The note with it: HEK239 cells expressing TRPC5; Naylor et al.; cited from earlier work.

As to `Clc1ccc(Cn2c(CN3CCCC3)nc3ccccc32)cc1` [Clemizole, clemizole], the “inhibition of TRPC5” value at TRPC5 [1] is “potent and selective inhibitor”. Consider `CCN(CC)Cc1nc2ccccc2n1Cc1ccc(Cl)cc1` [DE2, ({1-[(4-Chlorophenyl)methyl]-1H-benzimidazol-2-yl}methyl)diethylamine], for which, in assay [2], the adipocyte mitochondrial respiration result was “increases”. Moreover, the “adipocyte UCP1/Cytochrome C expression” value in the assay with UCP1 and Cytochrome C is on record as “increases”. In addition, the “inhibition of TRPC5 channels (intracellular Ca2+)” value at TRPC5 [3] was “demonstrated inhibition”. Further, at human TRPC4, the “inhibition of TRPC4 channels (intracellular Ca2+)” value is “demonstrated inhibition”. Consider `O=c1c(O)c(-c2ccccc2)oc2cc(O)cc(O)c12` [galangin], for which, at TRPC5 [4], the “inhibition of TRPC5 ion channel function” value is listed as “inhibitors”. Turning to `Oc1ccc(C=Cc2cc(O)cc(O)c2)cc1` [resveratrol], the “inhibition of TRPC5 ion channel function” value at TRPC5 [4] was “inhibitors”.

`O=C1O[C@H]([C@@H](O)CO)C(O)=C1O` [vitamin C]: the “inhibition of TRPC5 ion channel function” value at TRPC5 [4] is recorded as “inhibitors”.
